Measurements from patent US5885786A, “Methods for screening of substances for inhibition of multidrug resistance” (priority 1996, dated 1999).
“Also recorded” adds a separate entry of the source. Structures can show the parent of a compound that is named as a salt. Where two headings read alike, the source gives them in different places.

Assays:
[1] = test system: K562 erytiroleukemia cells; settings: Yan et al., 1995; cited from earlier work
[2] = test system: chronic myelogenous leukemia; settings: previously untreated chronic myelogenous leukemia; cited from earlier work
[3] = test system: glycosylceramide synthesis in MCF-7-AdrR cells; assay: Glycosylceramide levels in MDR cells following drug treatment, [3H]serine 48 h; assay type: cell-based; settings: read-out: diminution in glycosylceramide formation, adriamycin alone
[4] = test system: MCF-7-AdrR cells; assay: Cell proliferation (MTS) assay: adriamycin toxicity and chemosensitization
From the text: FIG. 15A and FIG. 15B. […] FIG. 15B: Glycosylceramide levels in MDR Cells following drug treatment. […] In order to avoid differences in [^3 H]glycosylceramide values which account for cell death, the same amount of total radioactive lipid from each sample was applied to TLC separation.
FIG. 16A and FIG. 16B. […] FIG. 16A: Effect of PPMP on cellular glycosylceramide levels. […] [^3 H]Glycosylceramide was quantitated as described in the legend to FIG. 9.
Vehicle (acetone, ethanol) was always added to control (minus drug) wells. The cytotoxic activity of a drug was determined using the Promega CellTiter 96™ AQueous MTS cell proliferation assay kit. Each experimental point was performed in six replicates. MTS/PMS solution (20 μl/well) was aliquoted into all wells, and the cells were incubated for 2-3 h, or until an O.D. of 0.9-1.0 was obtained as a highest reading. Thereafter, absorbence at 490 nm was recorded using an ELISA plate reader (Molecular Devices, San Diego, Calif.).

[5] = cited from earlier work
[6] = test system: OVCAR-3 (MDR ovarian carcinoma); settings: clinically relevant concentrations (Rogan et al., 1984); cited from earlier work
[7] = test system: P388 and U937 cells; settings: Bose et al., 1995; cited from earlier work
[8] = test system: certain animal tumors; settings: in vivo; cited from earlier work
[9] = test system: PKC; settings: Sachs et al., 1995; cited from earlier work
[10] = test system: MCF-7-doxorubicin resistant cells; settings: Sachs et al., 1995; cited from earlier work
[11] = test system: MCF-7-AdrR cells; assay: Metabolism of sphinganine, MCF-7-AdrR cells (TLC charring); assay type: cell-based; settings: 5.0 μM sphinganine:BSA, FIG. 4
Procedure: (§1) FIG. 4. Metabolism of sphinganine by MCF-7-wt and MCF-7-AdrR cells. Cells, in 100×20 mm culture dishes, were incubated with 5.0 μM sphinganine:BSA (prepared at a 1:1 molar ratio) for the times indicated. Lipids were extracted, a 100 μg lipid aliquot of each sample was resolved by TLC in solvent system II, and the TLC was charred as described in Example I. The data shown are representative of two independent experiments which gave similar results.
(§2) Lipid Mass Analysis--Cell lipids were analyzed by TLC separation and charring of the chromatogram. Briefly, total cellular lipids were extracted by the method of Bligh and Dyer (1959), and equal aliquots (by weight) from each sample were spotted on TLC plates. The plates were developed using solvent system I or II (see below), air-dried for 1 h and sprayed using a 35% solution of sulfuric acid in water. The lipids were charred by heating in an oven at 180° C. for 30 min, and resulting black bands were visualized and photographed. Bands can be further quantitated by photodensitometric scanning.

[12] = test system: MCF-7-wt cells; assay: Metabolism of sphinganine, MCF-7-wt cells (TLC charring); assay type: cell-based; settings: 5.0 μM sphinganine:BSA, FIG. 4
Procedure: as §1, §2

[13] = in vivo; cited from earlier work
[14] = test system: lymphomas, particularly Hodgkin's disease; settings: cited from earlier work

Cc1cn([C@H]2C[C@H](N=[N+]=[N-])[C@@H](CO)O2)c(=O)[nH]c1=O [3'-azidothymidine]
sphingoglycolipid metabolism (in words) [1]: altered sphingoglycolipid metabolism

CS(=O)(=O)OCCCCOS(C)(=O)=O [Busulfan, 1,4-butanediol dimethanesulfonate]
hematologic remission [2]: Approximately 90 % of adults

COc1cccc2c1C(=O)c1c(O)c3c(c(O)c1C2=O)C[C@@](O)(C(=O)CO)C[C@@H]3O[C@H]1C[C@H](N)[C@H](O)[C@H](C)O1 [adriamycin, 5,12-Naphthacenedione, (8s-cis)-10-[(3-amino-2,3,6-trideoxy-a-L-lyxo-hexopyranosyl)oxy]-7,8,9,10-tetrahydro-6,8,11-trihydroxy-8-(hydroxyacetyl)-1-methoxy-hydrochloride]
inhibition at 2.5 µM [3]: 17% | cell death, adriamycin in the presence of tamoxifen ([4]; 5 μM adriamycin + 5.0 μM tamoxifen, 72 h, FIG. 15A): 60% | cytotoxicity at 5 µM ([4]; Homo sapiens, 72 h, read-out: cell death, adriamycin alone (maximal cytotoxic effect)): 28% | effect of the substance alone on cell survival (in words) ([4]; MCF-7-AdrR, alone): minor effect; also recorded: largely without influence | elimination half-life ([5]; in vivo, iv): about 30 hr | excreted into the urine ([5]; in vivo): a few percent | absorption (in words) ([5]; oral or unspecified): absorbed poorly | resistance of OVCAR-3 to the drug (in words) [6]: resistant

COc1cccc2c1C(=O)c1c(O)c3c(c(O)c1C2=O)C[C@@](O)(C(C)=O)C[C@@H]3O[C@H]1C[C@H](N)[C@H](O)[C@H](C)O1 [daunorubicin, 5,12-Naphthacenedione, (8S-cis)-8-acetyl-10-[(3-amino-2,3,6-trideoxy-a-L-lyxo-hexanopyranosyl)oxy]-7,8,9,10-tetrahydro-6,8,11-trihydroxy-10-methoxy-, hydrochloride]
distribution half-life ([5]; in vivo, iv): 0.75 h | elimination half-life ([5]; in vivo, iv): about 19 hr | secreted into the bile ([5]; in vivo, iv): ~40% | absorption (in words) ([5]; in vivo, po): poor | ceramide elevation (in words) [7]: stimulates ceramide elevation

N[C@H](Cc1ccc(N(CCCl)CCCl)cc1)C(=O)O [medphalan]
activity against certain animal tumors relative to L-isomer (in words) [8]: less active

CCCCCCCCCCCCCCC[C@H](O)[C@@H](N)CO [safingol]
inhibition of PKC activity (in words) [9]: inhibition of PKC activity | reversal of MDR (in words) [10]: reversal of MDR

CCCCCCCCCCCCCCC[C@@H](O)[C@@H](N)CO [sphinganine]
glycosylceramide (lipid-1 and -2) synthesis/mass on sphinganine supplement, MCF-7-AdrR (in words) [11]: accelerated synthesis; also recorded: strikingly more pronounced | synthesis of lipid X, MCF-7-wt (in words) [12]: synthesis of lipid X increased

CC[C@]1(O)C[C@@H]2CN(CCc3c([nH]c4ccccc34)[C@@](C(=O)OC)(c3cc4c(cc3OC)N(C)[C@H]3[C@@](O)(C(=O)OC)[C@H](OC(C)=O)[C@]5(CC)C=CCN6CC[C@]43[C@@H]65)C2)C1 [vinblastine]
tolerability / toxicity (in words) [13]: painful irritation and ulceration | significant improvement [14]: 50 to 90 % of cases | half-life of disappearance from plasma, first ([5]; in vivo, iv): approximately 1 hours | half-life of disappearance from plasma, second ([5]; in vivo, iv): ~20 h | Cmax ([5]; in vivo): ~400 µM | distribution in blood cells (in words) ([5]; in vivo): extensively concentrated in platelets | plasma protein binding (in words) ([5]; in vivo): bind to plasma proteins
